What was measured:
[1] = TNS fluorescence titration for ionizable lipid pKa in liposomal bilayers; conditions: aminolipid incorporated into liposomes; for % Charged at pH 7.5: from TNS fluorescence titrations
[2] = Lipid-mixing fusion assay (RET fluorescent probe dilution), EPC/DOPE/Chol liposomes; conditions: for fusogenic capacity (fusion rate): 5 mole % of each aminolipid in EPC/DOPE/Chol (35:20:45) liposomes, Figure 9, in words
Procedure: (§1) Fusion was monitored by the decrease in resonance energy transfer (RET) resulting from fluorescent probe dilution, as described by Struck et al. (1981). […] The external buffer was 20 mM HEPES (150 mM NaCl, pH 7.5). […] Labeled and unlabeled liposomes were mixed in a 1:3 ratio, and diluted to 0.2 mM total lipid. External buffer was exchanged for 300 mM sucrose, 1 mM citrate, pH 4.0, on Sephadex G-25 columns before diluting preparations to 10 mM lipid. For fusion assays, 20 µl of fluorescently labeled liposomes, and 60 µl unlabeled liposomes, were added to 3.92 ml of 20 mM HEPES, 150 mM NaCl, pH 7.5. After 5 min. of incubation at room temperature, a 3 ml aliquot was added to a cuvette, and the fluorescence was monitored over 5 minutes. Excitation and emission wavelengths were 465 and 535 nm, respectively, and an emission 530 nm cutoff filter was used. To dissipate the gradient and induce fusion, ammonium acetate was added to a final concentration of 100 mM at 30 seconds. The percent change in fluorescence (% F/ Fmax) was determined by assigning zero fluorescence (F0) to a trace with no ammonium acetate added and Fmax to a trace measured after adding 100 µl of 25 mM Triton X-100, so that: % ( F/ Fmax ) = 100 x ((F-F0 )/(Fmax -F0 )) [formula]
To study the effect of aminolipid structure on the fusion of EPC/Chol/DOPE liposomes (35:20:45) liposomes were prepared with 5 mole % of the indicated aminolipid (AL-1-AL-6), an internal pH 4.0, 300 mM sodium citrate buffer, and an external 20 mM HEPES buffer (150 mM NaCl, pH 7.5). Fusion assays were carried out as described above.
(§2) Membrane fusion was monitored by a loss in RET between the fluorescently labeled lipids NBD-PE and Rh-PE. When liposomes containing both of these labels fuse with unlabeled liposomes, the resulting dilution of the fluorescent probes gives Increased fluorescence for NBD-PE.

[3] = Lipid asymmetry (transbilayer distribution) by TNS fluorescence; format: physicochemical; conditions: 10 mole % in EPC/Chol (55:45), internal pH 4, external pH 7.5; after four minutes
[4] = Lipid-mixing fusion assay (RET fluorescent probe dilution), EPC/Chol liposomes; conditions: plateau after dissipation of the pH gradient with 100 mM ammonium acetate, complete mixing would give 80%
Procedure: as §1, with “To dissipate the gradient and induce fusion, ammonium acetate was added to a final concentration of 100 mM at 30 seconds.” left out, “[formula] […]” for “[formula]”
as §2

CCCCCCCC/C=C\CCCCCCCC(=O)OCC(O)CN(C)C (racemic) [AL-2, ±-1-oleoyl-2-hydroxy-3-N,N-dimethylamino propane]
% Charged at pH 7.5 [1]: 54% | fusogenic capacity (fusion rate) [2]: little Increase in liposome fusion

CCCCCCCC/C=C\CCCCCCCC(=O)OCC(CN(C)C)OC(C)=O (racemic) [AL-3]
fraction of neutral species at pH 7.5 [1]: 16% | % Charged at pH 7.5 [1]: 16% | fusogenic capacity (fusion rate) [2]: substantially greater fusion rate

CCCCCCCC/C=C\CCCCCCCC(=O)OCC(CN(C)C)OC(=O)CCCCCCC/C=C\CCCCCCCC (racemic) [AL-1, 1-N,N-dimethylamino dioleoyl propane]
aminolipid moved to the inner monolayer [3]: virtually all | fraction of neutral species at pH 7.5 [1]: 11% | % Charged at pH 7.5 [1]: 11% | ΔF/ΔFmax ([4]; 10 mole % AL-1 in EPC/Chol (55:45)): ~3% | ΔF/ΔFmax ([4]; 20 mole % AL-1 in EPC/Chol (55:45)): ~3% | ΔF/ΔFmax ([2]; 10 mole % AL-1 in EPC/DOPE/Chol (30:25:45), over 5 minutes after dissipation of the pH gradient): ~10% | ΔF/ΔFmax ([2]; 10 mole % AL-1 in EPC/DOPE/Chol (35:20:45), after 5 minutes): over 5% | ΔF/ΔFmax ([2]; about 5 mole % AL-1 in EPC/DOPE/Chol (35:20:45), over the first 5 minutes after dissipation of the pH gradient): greater than 10%

CCCCCCCC/C=C\CCCCCCCC(=O)OCC(CN(C)C)OC(=O)CCC (racemic) [AL-4]
% Charged at pH 7.5 [1]: 13% | fusogenic capacity (fusion rate) [2]: further increases in the fusion rate

CCCCCCCC/C=C\CCCCCCCC(=O)OCC(CN(C)C)OC(=O)CCCCCCCCC (racemic) [AL-5]
% Charged at pH 7.5 [1]: 14% | fusogenic capacity (fusion rate) [2]: further increases in the fusion rate

CCCCCCCCCC(=O)OCC(CN(C)C)OC(=O)CCCCCCCCC (racemic) [AL-6, ±-1,2-didecanoyl-1-N,N-dimethylamino propane]
% Charged at pH 7.5 [1]: 17% | fusogenic capacity (fusion rate) [2]: only limited mixing
